For assay [1], the target named is T1, SRRM2 Serine/arginine repetitive matrix protein 2 (Homo sapiens, UniProt Q9UQ35).
T1 construct: Cells were resuspended in cold PBS on ice and sonicated with a probe sonicator to achieve lysis; endogenous in cells
As to the kind of experiment: Cysteine liganding, probe competition. Type of assay: binding. The method in brief: (§1)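 Read-out is loss of desthiobiotin iodoacetamide labelling at cysteines, measured on streptavidin-enriched tryptic peptides. Compound preincubation ran 1 hr at 25° C in PBS lysate holding 5 mg/ml proteome before the probe was added.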

Assay [2] deals with Q9NXR7 (Homo sapiens, UniProt Q9NXR7). As to the kind of experiment: Competitive cysteine profiling, probe competition (Table 2B). Further details: endogenous in cells. The class given is binding. To be noted: read-out: KB02_500 uM_percent_inhibition. The text has this: (§2) The following 96-well sample prep protocol was used for sample preparation.
In assay [3] the target is T2, ABCD3 ATP-binding cassette sub-family D member 3 (Homo sapiens, UniProt P28288).
T2 construct: Cells were resuspended in cold PBS on ice and sonicated with a probe sonicator to achieve lysis; endogenous in cells
The assay can be described thus: Cysteine liganding, probe competition. Here is the method: Cells were resuspended in cold PBS on ice and sonicated with a probe sonicator to achieve lysis. 200 μL of lysate containing 5 mg/ml proteome was treated with 2 μL of 100× compound stock in a 2-mL deep-well plate. The treated lysate was subsequently incubate at 25° C. for 1 hr with shaking at 600 rpm. The treated lysate was further incubated with 2 μL of 10 mM desthiobiotin iodoacetamide probe at 25° C. for 1 hr with shaking at 600 rpm. Next, the lysate was further treat with 20 μL of solution of PBS containing 11 mM MgSO4 and 2.5% Turbonuclease stock and incubated at 25° C. for 20 minutes with shaking at 600 rpm. 1.7 mL ice-cold acetone was added to each well and incubated at −20° C. for 2 hr, followed by max speed (4200 rpm) spin for 45 min. Acetone was then decanted and the plates were blotted to remove acetone. The plates were then dried in open air for 20 minutes. After drying, the plates were then covered with foil seal and stored at −80° C. overnight.
The next day, samples were re-suspended in 90 μL of solution of 9M urea, 50 mM ammonium bicarbonate and 10 mM DTT by incubating at 65C for 20 min with shaking at 1500 rpm. Next, samples were cooled to 37° C. and then 10 μL of 500 mM iodoacetamide solution (92.48 mg/ml) was added. The samples were then incubated at 37° C. for 30 min with shaking at 600 rpm. […]

Assay [4] has as its target T3, Q8NF64 (Homo sapiens, UniProt Q8NF64).
T3 construct: 200 μL of lysate containing 5 mg/ml proteome was treated with 2 μL of 100× compound stock; endogenous in cells
The assay can be described thus: Cysteine liganding, probe competition (Table 2B). Type of assay: binding. To be noted: one line per cysteine site, read-out: KB02_500 uM_percent_inhibition.
Text: as §2

Assay [5] has as its target T4, A6QL63 (Homo sapiens, UniProt A6QL63).
T4 construct: 200 μL of lysate containing 5 mg/ml proteome was treated with 2 μL of 100× compound stock; endogenous in cells
As to the kind of experiment: Competitive cysteine profiling, probe competition (Table 2B). The class given is binding. Particulars: read-out: KB02_100 uM_percent_inhibition.
Text: as §2

Assay [6] addresses T5, Q8N961 (Homo sapiens, UniProt Q8N961).
T5 construct: Cells were resuspended in cold PBS on ice and sonicated with a probe sonicator to achieve lysis; endogenous in cells
The description is as above. Type of assay: binding.
Text: as §2

For assay [7], the target named is T6, Q9NR09 (Homo sapiens, UniProt Q9NR09).
T6 construct: endogenous in cells
Described as above. Type of assay: binding. To be noted: 100 uM.
Text: as §2

Assay [8] deals with T7, B-cell lymphoma 6 protein (BCL6) (Homo sapiens, UniProt P41182).
T7 construct: Cells were resuspended in cold PBS on ice and sonicated with a probe sonicator to achieve lysis; endogenous in cells
The assay can be described thus: Cysteine liganding, probe competition. Type of assay: binding. The method in brief: as §1

For assay [9], the target named is Q99728 (Homo sapiens, UniProt Q99728). The assay can be described thus: Competitive cysteine profiling, probe competition (Table 2B). The class given is binding. To be noted: read-out: KB05_100 uM_percent_inhibition. The arrangement: endogenous in cells.
Text: as §2

For assay [10], the target named is T8, Q9ULT6 (Homo sapiens, UniProt Q9ULT6).
T8 construct: 200 μL of lysate containing 5 mg/ml proteome was treated with 2 μL of 100× compound stock; endogenous in cells
As to the kind of experiment: Cysteine liganding, probe competition (Table 2B). Type of assay: binding. To be noted: one line per cysteine site, read-out: KB05_500 uM_percent_inhibition.
Text: as §2

In assay [11] the target is T9, Q9C0D3 (Homo sapiens, UniProt Q9C0D3).
T9 construct: endogenous in cells; whole-cell lysate
As to the kind of experiment: Cysteine liganding, probe competition (Table 2B). The class given is binding. To be noted: one line per cysteine site, read-out: KB05_100 uM_percent_inhibition.
Text: as §2

For assay [12], the target named is T10, Q969K4 (Homo sapiens, UniProt Q969K4).
T10 construct: Cells were resuspended in cold PBS on ice and sonicated with a probe sonicator to achieve lysis; endogenous in cells
As to the kind of experiment: Competitive cysteine profiling, probe competition (Table 2B). The class given is binding. To be noted: read-out: KB05_100 uM_percent_inhibition.
Text: as §2

Assay [13] addresses T11, Q96Q27 (Homo sapiens, UniProt Q96Q27).
T11 construct: endogenous in cells
The description is as above. To be noted: read-out: KB05_100 uM_percent_inhibition. Type of assay: binding.
Text: as §2

Assay [14] concerns the target T12, MAP1B Microtubule-associated protein 1B (Homo sapiens, UniProt P46821).
T12 construct: Cells were resuspended in cold PBS on ice and sonicated with a probe sonicator to achieve lysis; endogenous in cells
As to the kind of experiment: Cysteine liganding, probe competition. Type of assay: binding. Summed up:
as §1

For assay [15], the target named is T13, Q9Y576 (Homo sapiens, UniProt Q9Y576).
T13 construct: endogenous in cells
The assay can be described thus: Competitive cysteine profiling, probe competition (Table 2B). The class given is binding. To be noted: 100 uM.
Text: as §2

`COc1ccc2c(c1)CCCN2C(=O)CCl` [KB02]: the Liganded result is on record as “YES” in assay [1] (SRRM2 Res# 1029, uniprot Q9UQ35); “YES” in assay [1] (SRRM2 Res# 1036, uniprot Q9UQ35); “YES” in assay [3] (ABCD3 Res# 472, uniprot P28288); “YES” in [3] (ABCD3 Res# 477, uniprot P28288). The inhibition at 500 µM in assay [2] came to 50%; in assay [4], 46%. For the same compound, the inhibition at 100 µM in assay [5] is 9%; in [6] (read-out: KB02_100 uM_percent_inhibition), 52%. Besides, the figures for the “KB02_100 uM_percent_inhibition” value in assay [6] (100 uM) and in assay [7] were 60% and 24%, respectively.
As for `C=CC(=O)N(c1ccccc1)c1ccc(Br)cc1` [KB05], in assay [8] (100 uM), the “KB05_100 uM_percent_inhibition” value was 7%. Also, the inhibition at 100 µM in assay [8] (read-out: KB05_100 uM_percent_inhibition) was 9%; in assay [9], 31%; in assay [11], 48%; in assay [12], 3%; in [13] it was 36%. Besides, the inhibition at 500 µM in [10] is 36%.
For the compound `O=C(CCl)Nc1cc(C(F)(F)F)cc(C(F)(F)F)c1` [KBO3], the Liganded entry in assay [14] (MAP1B Res# 382, uniprot P46821) is “YES”. In assay [14] (uniprot P46821), the 100 ave came to 37.5 and the 500 ave came out at 75.17. Besides, the “500 Max” value in assay [14] (uniprot P46821, in % (unit assumed)) worked out at 75.17. The same compound displayed a 100 Max in assay [14] (uniprot P46821, unit assumed) of 37.5%. Besides, the “KB03_100 uM_percent_inhibition” value in assay [15] stood at 51%.

Values taken from patent publication US20200239530A1, “COMPOUNDS AND METHODS OF MODULATING PROTEIN DEGRADATION” (Vividion Therapeutics, Inc., priority 2017, published 2020).
